Measured values reported in the kinase profiling compilation of Christmann-Franck et al. (2016).

Experiments:
Experiment in all cases: KINOMEscan competition binding
Settings in all cases: compound 10.0 µM
MAP3K3 (human) = MAP3K3 (human) (UniProt Q99759)
PLK4 (human) = PLK4 (human) (UniProt O00444)
FGFR3 (human) = FGFR3 (human) (UniProt P22607)
AKT1 (human) = AKT1 (human) (UniProt P31749)
NEK2 (human) = NEK2 (human) (UniProt P51955)
MST1R (human) = MST1R (human) (UniProt Q04912)
PRKCE (human) = PRKCE (human) (UniProt Q02156)
FLT1 (human) = FLT1 (human) (UniProt P17948)
MAP4K2 (human) = MAP4K2 (human) (UniProt Q12851)
MAP4K3 (human) = MAP4K3 (human) (UniProt Q8IVH8)
FRK (human) = FRK (human) (UniProt P42685)
DYRK1B (human) = DYRK1B (human) (UniProt Q9Y463)
TGFBR1 (human) = TGFBR1 (human) (UniProt P36897)
MAP3K10 (human) = MAP3K10 (human) (UniProt Q02779)
AKT3 (human) = AKT3 (human) (UniProt Q9Y243)
FLT4 (human) = FLT4 (human) (UniProt P35916)
FGFR2 (human) = FGFR2 (human) (UniProt P21802)
FGFR1 (human) = FGFR1 (human) (UniProt P11362)
PIP4K2B (human) = PIP4K2B (human) (UniProt P78356)
PIM2 (human) = PIM2 (human) (UniProt Q9P1W9)
ACVRL1 (human) = ACVRL1 (human) (UniProt P37023)
RPS6KA6 KD2 (human) = RPS6KA6 KD2 (human) (UniProt Q9UK32)
CLK4 (human) = CLK4 (human) (UniProt Q9HAZ1)
CDK7 (human) = CDK7 (human) (UniProt P50613)
STK17B (human) = STK17B (human) (UniProt O94768)
PLK1 (human) = PLK1 (human) (UniProt P53350)
[1] = molecular target: JAK2 JH1 catalytic (human) (UniProt O60674)
[2] = molecular target: TYK2 JH2 pseudokinase (human) (UniProt P29597)
MAPK10 (human) = MAPK10 (human) (UniProt P53779)
MST4 (human) = MST4 (human) (UniProt Q9P289)
PRKAA2 (human) = PRKAA2 (human) (UniProt P54646)
RIOK2 (human) = RIOK2 (human) (UniProt Q9BVS4)
ABL2 (human) = ABL2 (human) (UniProt P42684)
CHEK2 (human) = CHEK2 (human) (UniProt O96017)
CAMK2B (human) = CAMK2B (human) (UniProt Q13554)
PKMYT1 (human) = PKMYT1 (human) (UniProt Q99640)
BMPR1A (human) = BMPR1A (human) (UniProt P36894)
TGFBR2 (human) = TGFBR2 (human) (UniProt P37173)
EPHA4 (human) = EPHA4 (human) (UniProt P54764)
RPS6KA5 KD2 (human) = RPS6KA5 KD2 (human) (UniProt O75582)

Chain of MAP3K10 (human) (Q02779 whole entry, looked up): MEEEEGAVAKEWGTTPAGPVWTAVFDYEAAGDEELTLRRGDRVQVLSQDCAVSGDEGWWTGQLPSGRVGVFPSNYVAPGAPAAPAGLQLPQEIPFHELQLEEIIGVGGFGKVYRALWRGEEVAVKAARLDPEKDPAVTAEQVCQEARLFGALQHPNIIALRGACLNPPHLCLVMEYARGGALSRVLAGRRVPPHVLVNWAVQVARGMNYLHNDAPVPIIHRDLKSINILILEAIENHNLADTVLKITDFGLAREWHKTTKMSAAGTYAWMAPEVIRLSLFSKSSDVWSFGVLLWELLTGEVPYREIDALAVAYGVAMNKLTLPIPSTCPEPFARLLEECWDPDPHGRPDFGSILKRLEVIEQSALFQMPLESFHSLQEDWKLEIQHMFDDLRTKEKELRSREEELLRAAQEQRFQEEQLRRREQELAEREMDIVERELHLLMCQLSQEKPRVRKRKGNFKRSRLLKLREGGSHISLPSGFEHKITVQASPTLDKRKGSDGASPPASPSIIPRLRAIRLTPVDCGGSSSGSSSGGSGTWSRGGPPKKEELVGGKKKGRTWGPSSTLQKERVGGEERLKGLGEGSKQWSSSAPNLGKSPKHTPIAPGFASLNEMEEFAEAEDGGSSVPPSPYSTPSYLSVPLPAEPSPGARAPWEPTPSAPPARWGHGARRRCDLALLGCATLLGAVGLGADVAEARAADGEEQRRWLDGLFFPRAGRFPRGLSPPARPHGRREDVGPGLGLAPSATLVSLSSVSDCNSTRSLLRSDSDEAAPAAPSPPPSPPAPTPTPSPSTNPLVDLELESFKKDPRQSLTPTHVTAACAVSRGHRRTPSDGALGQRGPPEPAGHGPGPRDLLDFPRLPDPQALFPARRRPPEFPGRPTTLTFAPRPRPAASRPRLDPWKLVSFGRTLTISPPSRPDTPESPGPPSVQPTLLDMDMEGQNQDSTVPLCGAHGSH
Chain of AKT1 (human) (P31749 whole entry, looked up): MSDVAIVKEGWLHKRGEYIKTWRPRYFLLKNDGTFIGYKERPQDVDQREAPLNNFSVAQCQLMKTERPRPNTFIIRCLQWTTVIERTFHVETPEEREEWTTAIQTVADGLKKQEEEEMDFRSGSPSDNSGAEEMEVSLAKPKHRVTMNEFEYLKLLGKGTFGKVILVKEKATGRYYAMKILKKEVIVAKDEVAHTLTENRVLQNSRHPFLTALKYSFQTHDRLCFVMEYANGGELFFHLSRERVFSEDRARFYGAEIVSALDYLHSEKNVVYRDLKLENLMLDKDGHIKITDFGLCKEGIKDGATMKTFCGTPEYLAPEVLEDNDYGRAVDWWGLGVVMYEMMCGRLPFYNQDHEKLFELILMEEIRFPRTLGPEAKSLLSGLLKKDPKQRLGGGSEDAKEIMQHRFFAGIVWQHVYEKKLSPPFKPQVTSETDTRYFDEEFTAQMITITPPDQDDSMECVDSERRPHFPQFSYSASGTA
Chain of MAP3K3 (human) (Q99759 whole entry, looked up): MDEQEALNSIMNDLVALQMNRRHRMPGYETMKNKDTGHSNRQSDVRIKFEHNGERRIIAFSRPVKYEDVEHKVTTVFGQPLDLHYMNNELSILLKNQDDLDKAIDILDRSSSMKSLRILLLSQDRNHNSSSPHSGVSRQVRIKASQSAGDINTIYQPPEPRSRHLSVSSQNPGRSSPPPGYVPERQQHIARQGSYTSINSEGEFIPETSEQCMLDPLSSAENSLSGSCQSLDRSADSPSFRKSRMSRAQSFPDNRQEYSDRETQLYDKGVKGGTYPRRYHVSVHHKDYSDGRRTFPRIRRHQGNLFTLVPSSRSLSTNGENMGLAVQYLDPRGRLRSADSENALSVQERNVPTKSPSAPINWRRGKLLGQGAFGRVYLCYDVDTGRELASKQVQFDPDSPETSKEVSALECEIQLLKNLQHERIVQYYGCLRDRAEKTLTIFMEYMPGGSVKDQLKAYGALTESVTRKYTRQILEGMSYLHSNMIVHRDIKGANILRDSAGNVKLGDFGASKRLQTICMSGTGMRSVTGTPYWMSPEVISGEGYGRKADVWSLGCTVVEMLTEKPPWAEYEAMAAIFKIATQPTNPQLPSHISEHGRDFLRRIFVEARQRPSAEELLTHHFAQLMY
Chain of PKMYT1 (human) (Q99640 whole entry, looked up): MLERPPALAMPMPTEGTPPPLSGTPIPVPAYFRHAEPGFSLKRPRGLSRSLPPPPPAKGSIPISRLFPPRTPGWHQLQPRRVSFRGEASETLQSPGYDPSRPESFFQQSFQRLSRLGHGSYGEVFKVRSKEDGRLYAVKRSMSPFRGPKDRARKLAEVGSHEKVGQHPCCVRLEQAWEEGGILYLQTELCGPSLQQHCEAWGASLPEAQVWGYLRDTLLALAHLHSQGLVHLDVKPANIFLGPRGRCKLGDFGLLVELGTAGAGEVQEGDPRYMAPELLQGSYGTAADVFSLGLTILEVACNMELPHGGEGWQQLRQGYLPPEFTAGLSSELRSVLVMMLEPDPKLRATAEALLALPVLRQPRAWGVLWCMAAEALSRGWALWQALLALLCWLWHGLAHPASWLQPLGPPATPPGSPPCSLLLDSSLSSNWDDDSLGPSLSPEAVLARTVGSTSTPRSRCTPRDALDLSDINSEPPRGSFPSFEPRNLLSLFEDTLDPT
Chain of FLT4 (human) (P35916 whole entry, looked up): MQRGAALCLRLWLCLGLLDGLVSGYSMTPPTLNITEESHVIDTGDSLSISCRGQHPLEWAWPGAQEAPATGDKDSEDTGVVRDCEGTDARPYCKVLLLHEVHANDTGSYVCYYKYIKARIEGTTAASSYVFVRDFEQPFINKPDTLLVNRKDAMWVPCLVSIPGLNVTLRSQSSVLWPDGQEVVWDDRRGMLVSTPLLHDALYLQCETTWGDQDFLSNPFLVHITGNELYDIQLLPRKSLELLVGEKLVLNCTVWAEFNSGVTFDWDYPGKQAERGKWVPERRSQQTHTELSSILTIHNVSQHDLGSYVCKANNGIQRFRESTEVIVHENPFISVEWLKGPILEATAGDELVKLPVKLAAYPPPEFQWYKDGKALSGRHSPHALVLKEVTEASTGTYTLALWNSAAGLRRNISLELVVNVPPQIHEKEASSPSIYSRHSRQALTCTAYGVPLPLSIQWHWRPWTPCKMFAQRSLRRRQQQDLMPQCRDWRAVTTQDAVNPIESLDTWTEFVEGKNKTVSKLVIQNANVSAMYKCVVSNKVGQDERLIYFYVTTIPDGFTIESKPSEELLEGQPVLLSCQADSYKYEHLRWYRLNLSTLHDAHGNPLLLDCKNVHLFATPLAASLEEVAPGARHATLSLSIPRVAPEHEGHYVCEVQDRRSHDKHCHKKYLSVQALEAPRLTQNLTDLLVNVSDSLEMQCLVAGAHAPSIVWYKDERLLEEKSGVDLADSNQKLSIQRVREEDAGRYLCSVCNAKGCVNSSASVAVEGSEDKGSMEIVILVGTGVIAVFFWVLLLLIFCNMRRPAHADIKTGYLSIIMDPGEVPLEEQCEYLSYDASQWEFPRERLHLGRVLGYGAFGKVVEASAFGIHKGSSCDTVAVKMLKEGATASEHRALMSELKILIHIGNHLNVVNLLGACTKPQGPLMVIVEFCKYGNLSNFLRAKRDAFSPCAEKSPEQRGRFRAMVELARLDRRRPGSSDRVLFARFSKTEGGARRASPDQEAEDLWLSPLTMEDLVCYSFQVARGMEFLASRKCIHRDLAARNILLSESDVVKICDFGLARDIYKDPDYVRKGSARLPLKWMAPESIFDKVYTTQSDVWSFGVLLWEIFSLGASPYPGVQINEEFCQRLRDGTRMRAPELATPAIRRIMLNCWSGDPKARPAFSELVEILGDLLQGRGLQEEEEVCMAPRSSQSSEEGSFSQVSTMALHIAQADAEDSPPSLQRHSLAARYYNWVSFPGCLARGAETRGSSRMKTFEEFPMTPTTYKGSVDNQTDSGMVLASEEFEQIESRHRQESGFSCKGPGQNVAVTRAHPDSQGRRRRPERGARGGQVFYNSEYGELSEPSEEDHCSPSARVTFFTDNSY
Chain of STK17B (human) (O94768 whole entry, looked up): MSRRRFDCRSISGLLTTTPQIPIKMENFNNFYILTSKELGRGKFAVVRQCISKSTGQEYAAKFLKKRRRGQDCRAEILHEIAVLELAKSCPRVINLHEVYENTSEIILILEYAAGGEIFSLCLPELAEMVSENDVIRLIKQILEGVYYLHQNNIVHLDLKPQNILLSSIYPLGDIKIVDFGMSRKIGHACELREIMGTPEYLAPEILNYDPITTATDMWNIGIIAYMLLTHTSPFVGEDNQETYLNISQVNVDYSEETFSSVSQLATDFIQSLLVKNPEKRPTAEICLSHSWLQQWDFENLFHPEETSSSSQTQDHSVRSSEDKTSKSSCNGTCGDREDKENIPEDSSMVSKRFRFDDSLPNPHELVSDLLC
Chain of CAMK2B (human) (Q13554 whole entry, looked up): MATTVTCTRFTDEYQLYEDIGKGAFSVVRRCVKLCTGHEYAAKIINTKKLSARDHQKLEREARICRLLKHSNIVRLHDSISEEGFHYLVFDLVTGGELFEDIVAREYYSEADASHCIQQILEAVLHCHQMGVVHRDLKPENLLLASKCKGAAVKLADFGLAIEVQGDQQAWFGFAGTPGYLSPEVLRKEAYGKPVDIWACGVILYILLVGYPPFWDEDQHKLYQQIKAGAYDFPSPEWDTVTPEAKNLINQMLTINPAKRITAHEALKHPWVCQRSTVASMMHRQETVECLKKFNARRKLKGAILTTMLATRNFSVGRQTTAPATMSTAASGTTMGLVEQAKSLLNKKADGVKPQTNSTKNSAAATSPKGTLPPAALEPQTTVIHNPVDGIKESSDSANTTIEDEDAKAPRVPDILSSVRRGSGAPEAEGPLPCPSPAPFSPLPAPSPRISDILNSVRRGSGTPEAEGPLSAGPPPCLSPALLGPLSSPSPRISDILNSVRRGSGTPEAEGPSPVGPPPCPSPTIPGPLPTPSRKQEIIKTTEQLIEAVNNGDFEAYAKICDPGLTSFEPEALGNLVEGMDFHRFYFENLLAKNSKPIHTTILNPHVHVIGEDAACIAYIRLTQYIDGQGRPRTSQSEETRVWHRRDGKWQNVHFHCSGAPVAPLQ

kinase still bound, per cent of control (MAP3K3 (human)) | kinase still bound, per cent of control (PLK4 (human)) | kinase still bound, per cent of control (FGFR3 (human)) | kinase still bound, per cent of control (AKT1 (human)) | kinase still bound, per cent of control (NEK2 (human)) | kinase still bound, per cent of control (MST1R (human)) | kinase still bound, per cent of control (PRKCE (human)) | kinase still bound, per cent of control (FLT1 (human)) | kinase still bound, per cent of control (MAP4K2 (human)) | kinase still bound, per cent of control (MAP4K3 (human)) | kinase still bound, per cent of control (FRK (human)) | kinase still bound, per cent of control (DYRK1B (human)) | kinase still bound, per cent of control (TGFBR1 (human)) | kinase still bound, per cent of control (MAP3K10 (human)) | kinase still bound, per cent of control (AKT3 (human)) | kinase still bound, per cent of control (FLT4 (human)) | kinase still bound, per cent of control (FGFR2 (human)) | kinase still bound, per cent of control (FGFR1 (human)) | kinase still bound, per cent of control (PIP4K2B (human)) | kinase still bound, per cent of control (PIM2 (human)) | Structure (SMILES) | further results
100% | 100% | 100% | 100% | 100% | 100% | 100% | 100% | 100% | 100% | 100% | 4% | 100% | 100% | 100% | 100% | 100% | 100% | 100% | 100% | OCCCNc1cc(-c2ccnc(Nc3cccc(Cl)c3)n2)ccn1 | kinase still bound, per cent of control (ACVRL1 (human)): 100%; kinase still bound, per cent of control (RPS6KA6 KD2 (human)): 100%; kinase still bound, per cent of control (CLK4 (human)): 14%; kinase still bound, per cent of control (CDK7 (human)): 100%; kinase still bound, per cent of control (STK17B (human)): 100%; kinase still bound, per cent of control (PLK1 (human)): 100%; kinase still bound, per cent of control [1]: 100%; kinase still bound, per cent of control [2]: 100%; kinase still bound, per cent of control (MAPK10 (human)): 100%; kinase still bound, per cent of control (MST4 (human)): 100%; kinase still bound, per cent of control (PRKAA2 (human)): 100%; kinase still bound, per cent of control (RIOK2 (human)): 100%; kinase still bound, per cent of control (ABL2 (human)): 100%; kinase still bound, per cent of control (CHEK2 (human)): 100%; kinase still bound, per cent of control (CAMK2B (human)): 100%; kinase still bound, per cent of control (PKMYT1 (human)): 100%; kinase still bound, per cent of control (BMPR1A (human)): 100%; kinase still bound, per cent of control (TGFBR2 (human)): 100%; kinase still bound, per cent of control (EPHA4 (human)): 100%; kinase still bound, per cent of control (RPS6KA5 KD2 (human)): 100%
100% | 100% | 100% | 100% | 100% | 100% | 100% | 100% | 100% | 100% | 100% | 100% | 100% | 100% | 100% | 100% | 100% | 100% | 100% | 100% | COc1cc(C(=O)NC2CCN(C)CC2)ccc1Nc1ncc2c(n1)N(C1CCCC1)C(C)CC(=O)N2C (stereo not given) | kinase still bound, per cent of control (ACVRL1 (human)): 100%; kinase still bound, per cent of control (RPS6KA6 KD2 (human)): 12%; kinase still bound, per cent of control (CLK4 (human)): 100%; kinase still bound, per cent of control (CDK7 (human)): 100%; kinase still bound, per cent of control (STK17B (human)): 100%; kinase still bound, per cent of control (PLK1 (human)): 19%; kinase still bound, per cent of control [1]: 100%; kinase still bound, per cent of control [2]: 100%; kinase still bound, per cent of control (MAPK10 (human)): 100%; kinase still bound, per cent of control (MST4 (human)): 100%; kinase still bound, per cent of control (PRKAA2 (human)): 100%; kinase still bound, per cent of control (RIOK2 (human)): 100%; kinase still bound, per cent of control (ABL2 (human)): 100%; kinase still bound, per cent of control (CHEK2 (human)): 100%; kinase still bound, per cent of control (CAMK2B (human)): 100%; kinase still bound, per cent of control (PKMYT1 (human)): 100%; kinase still bound, per cent of control (BMPR1A (human)): 100%; kinase still bound, per cent of control (TGFBR2 (human)): 100%; kinase still bound, per cent of control (EPHA4 (human)): 100%; kinase still bound, per cent of control (RPS6KA5 KD2 (human)): 100%

Structure (SMILES) | kinase still bound, per cent of control (MAP3K3 (human)) | kinase still bound, per cent of control (PLK4 (human)) | kinase still bound, per cent of control (FGFR3 (human)) | kinase still bound, per cent of control (AKT1 (human)) | kinase still bound, per cent of control (NEK2 (human)) | kinase still bound, per cent of control (MST1R (human)) | kinase still bound, per cent of control (PRKCE (human)) | kinase still bound, per cent of control (FLT1 (human)) | kinase still bound, per cent of control (MAP4K2 (human)) | kinase still bound, per cent of control (MAP4K3 (human)) | kinase still bound, per cent of control (FRK (human)) | kinase still bound, per cent of control (DYRK1B (human)) | kinase still bound, per cent of control (TGFBR1 (human)) | kinase still bound, per cent of control (MAP3K10 (human)) | kinase still bound, per cent of control (AKT3 (human)) | kinase still bound, per cent of control (FLT4 (human)) | kinase still bound, per cent of control (FGFR2 (human)) | kinase still bound, per cent of control (FGFR1 (human)) | kinase still bound, per cent of control (PIP4K2B (human)) | kinase still bound, per cent of control (PIM2 (human)) | further results
COc1cc(N2CCN(C)CC2)ccc1Nc1nc(N)c(C(=O)c2c(Cl)cccc2Cl)s1 | 76% | 100% | 99% | 100% | 100% | 96% | 68% | 100% | 77% | 100% | 43% | 42% | 100% | 100% | 100% | 100% | 91% | 94% | 100% | 100% | kinase still bound, per cent of control (ACVRL1 (human)): 84%; kinase still bound, per cent of control (RPS6KA6 KD2 (human)): 28%; kinase still bound, per cent of control (CLK4 (human)): 50%; kinase still bound, per cent of control (CDK7 (human)): 2.8%; kinase still bound, per cent of control (STK17B (human)): 73%; kinase still bound, per cent of control (PLK1 (human)): 72%; kinase still bound, per cent of control [1]: 80%; kinase still bound, per cent of control [2]: 60%; kinase still bound, per cent of control (MAPK10 (human)): 100%; kinase still bound, per cent of control (MST4 (human)): 100%; kinase still bound, per cent of control (PRKAA2 (human)): 68%; kinase still bound, per cent of control (RIOK2 (human)): 100%; kinase still bound, per cent of control (ABL2 (human)): 82%; kinase still bound, per cent of control (CHEK2 (human)): 100%; kinase still bound, per cent of control (CAMK2B (human)): 20%; kinase still bound, per cent of control (PKMYT1 (human)): 100%; kinase still bound, per cent of control (BMPR1A (human)): 100%; kinase still bound, per cent of control (TGFBR2 (human)): 92%; kinase still bound, per cent of control (EPHA4 (human)): 90%; kinase still bound, per cent of control (RPS6KA5 KD2 (human)): 96%
